In patent US9550978B2, “Isolation and functional identification of cells” (CAPROTEC BIOANALYTICS GMBH, priority 2010, dated 2017):

Legend:
MMP14 = target: T1, MMP14 (Homo sapiens, UniProt P50281); test: Capture Compound Mass Spectrometry (CCMS) identification of the marimastat-binding protein (Example 5b); conditions: excess marimastat competitor
T1 construct: densely grown with adherent HT-1080 cells; endogenous in cells; host or cells: HT-1080 cells (adherent, not recombinant)
Procedure: In a repetition of the experiment described in example 5a, the magnetic particles after the wash buffer and water wash steps (end of 5a.ii) were additionally washed six times with 200 μl 80% acetonitrile and once with 200 μl ultrapure water. The proteins captured on the particles were digested by addition of 9 μl 50 mmol/l ammonium bicarbonate and 1 μl 0.5 mg/ml trypsin (Sequencing Grade, Roche, ProdNo. 11047841001) in 1 mmol/l HCl. The particles were kept in suspension in this solution by shaking (2000 rpm) at 37° C. over night. After magnetically separating the particles, the supernatant was evaporated and the contained tryptic peptides were analyzed by nanoLC-MS/MS after dissolving them in 0.1% formic acid (equipment: Easy-nLC liquid chromatography system; Proxeon Biosystems A/S and LTQ Orbitrap Velos mass spectrometer; Thermo Scientific). The peptide and protein identification by automated sequence database search was performed on the one hand using the search algorithms SEQUEST (implemented in the Proteome Discoverer software 1.2.0.208, Thermo Scientific) and X!Tandem (The Global Proteome Machine Organization; version 2007.01.01.1, implementiert in the Scaffold software, version 3_00_03, Proteome Software Inc.) or on the other hand using MaxQuant (version 1.1.1.25, Cox, J. and Mann, M. (2008) Nat Biotechnol 26, 1367-72.) for label-free quantification of proteins. […]

HT-1080 cells [1] = test: Method 2: cell tagging with capture compound first, then streptavidin magnetic particles (Example 2b); format: cell-based, human; conditions: culture "con", free marimastat competitor added first
Procedure: Cell culture supernatant of two cell cultures of adherent fibrosarcoma cells of cell line HT-1080 was prepared as described above (example 2a).
The cultures were spiked with 400 μl cell culture supernatant each. “Ver” received 20 μl water, control “con” received 20 μl 10 mM free marimastat (competitor), both cultures were swayed for mixing and incubated 3 min at room temperature, carefully keeping the cell layer wet at all times. During this step, the free marimastat in culture “con” binds to marimastat-binding proteins or protein complexes on the surface of cells and blocks their binding sites, preventing marimastat capture compounds from binding during the subsequent step. 2 μl 100 μmol/l marimastat capture compound was added to each culture, shaken gently and incubated 5 min at room temperature. Binding of the marimastat capture compound only happens on the cell surface proteins in culture “ver” (which are not blocked). The supernatant was removed from each, both cultures were washed with 400 μl fresh cell culture supernatant twice to remove excess marimastat capture compound, and 400 μl fresh cell culture supernatant was added each. 1 μl of 10 mg/ml strepatavidin coated magnetic particles of 1 μm diameter (Dynabeads MyOne Steptavidin C1 (Dynal)), was added to each culture, homogenized by swaying and incubated 30 min at room temperature. […]

HT-1080 cells [2] = test: Specific magnetic isolation of selectively tagged cells (Example 3); format: cell-based, human; conditions: control "con", free marimastat competitor
Procedure: After tagging and washing (method 2, see example 2b) the supernatant was removed from cultures “ver” and “con” and the cultures were treated with 200 μl non-enzymatic cell dissociation solution (Sigma), followed by 10 min incubation at room temperature. […] The cells were moved to two 200 μl PCR vials labelled “ver” and “con”, respectively.

HT-1080 cells [3] = test: Marimastat-specific tagging of adherent cells by capture compound coated magnetic particles (Example 2a); format: cell-based, human; conditions: culture "con", with free marimastat competitor; light microscopy
Source text: Cell culture supernatant (10% heat inactivated fetal calf serum (PAA Laboratories GmbH), 1× Penicillin/Streptomycin (PAA) in DMEM (Dulbecco's Modified Eagle Medium) High Glucose (4.5 g/l) with stable glutamin (PAA)) was removed from two cell cultures of adherent fibrosarcoma cells (cell line HT-1080 (ACC 315 Deutsche Sammlung von Mikroorganismen and Zellkulturen DSMZ Braunschweig; densely grown; 3.5 cm petri dish; passage 9) and added to further cell culture supernatant from a larger culture. The petri dish was closed to avoid drying of the cells.
20 μl 10 mg/ml strepatavidin coated magnetic particles of 1 μm diameter (Dynabeads MyOne Steptavidin C1 (Dynal)) (streptavidin magnetic particles or particles in the following) were mixed with 10 μl 100 μM marimastat capture compound V (caprotec bioanalytics GmbH)
[drawing 4] and incubated 10 min at room temperature. The particles were collected at the inner vial wall by applying a strong magnet (caproMag, caprotec bioanalytics GmbH, containing a 150×9×7 mm neodymium magnet (NdFeB) of quality N52 (1.43 Tesla)), and the supernatant was discarded. The particles were resuspended in 500 μl HT-1080 cell culture supernatant, collected magnetically anew and resuspended in 200 μl water, giving a 1 mg/ml marimastat capture compound-particle suspension. […]

[4] = target: T2, marimastat-binding protein on the cell surface of HT-1080 cells (Homo sapiens, UniProt P50281); test: Photochemical crosslink on cell surface, detection by streptavidin-horseradish peroxidase blot (Example 5a); conditions: sample "C": 0.5 mmol/l marimastat competitor, UV irradiated
T2 construct: densely grown with adherent HT-1080 cells; endogenous in cells; host or cells: HT-1080 cells (adherent, not recombinant)
Procedure: Five times three sterile petri dishes with 3.5 cm diameter were densely grown with adherent HT-1080 cells (passage 10, see example 2 for medium and conditions). The cell culture supernatant was collected and 400 μl of this supernatant was again applied onto the cells such that the cells were covered with a layer of cell culture supernatant. Three of the petri dishes were labeled, respectively, “A”, “C”, “PD”, “PDC” and “noCC”. To “A”, “PD” and “noCC” were added 20 μl ultrapure water, respectively. To “C” and “PDC” were added 20 μl 10 mmol/l marimastat, respectively (0.5 mmol/l final concentration) and homogenized by swaying. To “A”, “C”, “PD” and “PDC” were added 2 μl 100 μmol/l marimastat capture compound (0.5 μmol/l final concentration) and homogenized by swaying. After a 2 min incubation, cells with supernatant of petri dishes “A”, “C” and “noCC” (open lids) were irradiated for 1 min with UV light (λmax=310 nm, caproBox, caprotec Bioanalytics GmbH, Berlin). Cells with supernatant of petri dishes “PD” and “PDC” were not irradiated but otherwise treated the same (incubated in caproBox for 1 min without irradiation). The supernatant was collected and discarded (in a repetition experiment, this supernatant was also analyzed as described in example 5b). […]

HT-1080 cells [5] = test: Immobilization of cells from suspension on streptavidin coated multititer plates (Example 4); format: cell-based, human; conditions: mean of three samples
Procedure: HT-1080 cells (see above) were treated for 30 min in cell culture medium with calcein AM to fluorescently stain the cytosol and were provided in suspension (obtained by scraping off the adherent cells using a cell spatula) at a final concentration of ˜0.5*10^6/ml in culture medium. White blood cells (WBC) freshly obtained from a donor by lysis of erythrocytes and subsequent washing and resuspension were adjusted to a final concentration of ˜5*10^6/ml in phosphate buffered saline (PBS). 12-well multititer plates (streptavidin coated) were used for cell immobilization.
Samples of HT-1080 cells to be used as controls were treated with adjusted to 50 μmol/l free marimastat in medium by adding a stock solution (10 mM) of the competitor (samples marked “C”). Non-competitor verum samples are marked “A”.
Samples treated with marimastat capture compound in solution were adjusted to 0.5 μmol/l capture compound in medium from 20 μmol/l stock solution (samples labelled “ind”), or attached to the capture compound-treated streptavidin-coated surface (samples labelled “dir”).
For determining the influence on binding by activating the reactivity function by UV irradiation (samples labelled “UV”) in samples for indirect binding (first capture compound attaching to cells, then cells binding to surface), cells were irradiated for 1 min by a near UV laboratory source (λmax=310 nm, caproBox, caprotec bioanalytics GmbH, Berlin) in an uncoated well (or not for samples without UV irradiation), collected, spun down, washed, and transferred to a streptavidin-coated well (incubation time˜3 h). Samples for direct binding were brought into capture compound coated wells (prepared as described below) directly (incubation time˜3 h) and UV-irradiated therein (or not for samples without UV irradiation). For loading the streptavidin-coated microtiter plates with capture compound, the wells were rinsed repeatedly for 10 min with 10 μl of 20 μM marimastat capture compound per well in 200 μl PBS at room temperature; the supernatant was discarded and the wells were washed with PBS.
The medium over the cells bound to the surface was mainly removed (a minimum rest was left to cover the cells and not let the cells dry) and all wells were washed carefully two times with 1 ml medium. HT-1080 cells were counted by their calcein AM fluorescence using a Cellavista system. Values below are adjusted for HT-1080 cell numbers delivered onto the well (1.9*10^5).

## CNC(=O)[C@@H](NC(=O)[C@H](CC(C)C)[C@H](O)C(=O)NO)C(C)(C)C [marimastat]
MMP14
  MMP14 capture in presence of competitor (MaxQuant analysis): completely suppressed
HT-1080 cells [1]
  particle tagging of cells after washing: little or no particles are visible
HT-1080 cells [2]
  retention of tagged cells at vial wall by magnet: mostly sunk to the bottom of the vial
HT-1080 cells [3]
  tagging of cells on their surface by particles after washing: not marked, or to only very little extent
[4]
  blot signal of protein photochemically crosslinked with the capture compound: the signal is absent
HT-1080 cells [5]; C dir (no UV): direct binding, marimastat excess competitor, no UV
  Percent input cells recovered: 14.5 (standard deviation of Percent
HT-1080 cells [5]; C dir UV: direct binding, marimastat excess competitor, UV activated
  Percent input cells recovered: 7.9 (standard deviation of Percent
HT-1080 cells [5]; C ind (no UV): indirect binding, marimastat excess competitor, no UV
  Percent input cells recovered: 1.1 (standard deviation of Percent
HT-1080 cells [5]; C ind UV: indirect binding, 50 μmol/l free marimastat competitor, UV activated
  Percent input cells recovered: 0.7 (standard deviation of Percent
